Structures can show the parent of a compound that is named as a salt.

For the experiment, the target named is T1, HCV polymerase (Hepatitis C virus genotype 1b, UniProt P26663).
T1 construct: a region encoding NS5B (591 amino acids; J Virol 1991 Mar, 65(3), 1105-13) was amplified by PCR; 6 His (N); made in house; host or cells: Escherichia coli
T1 sequence (P26663 2420-3010): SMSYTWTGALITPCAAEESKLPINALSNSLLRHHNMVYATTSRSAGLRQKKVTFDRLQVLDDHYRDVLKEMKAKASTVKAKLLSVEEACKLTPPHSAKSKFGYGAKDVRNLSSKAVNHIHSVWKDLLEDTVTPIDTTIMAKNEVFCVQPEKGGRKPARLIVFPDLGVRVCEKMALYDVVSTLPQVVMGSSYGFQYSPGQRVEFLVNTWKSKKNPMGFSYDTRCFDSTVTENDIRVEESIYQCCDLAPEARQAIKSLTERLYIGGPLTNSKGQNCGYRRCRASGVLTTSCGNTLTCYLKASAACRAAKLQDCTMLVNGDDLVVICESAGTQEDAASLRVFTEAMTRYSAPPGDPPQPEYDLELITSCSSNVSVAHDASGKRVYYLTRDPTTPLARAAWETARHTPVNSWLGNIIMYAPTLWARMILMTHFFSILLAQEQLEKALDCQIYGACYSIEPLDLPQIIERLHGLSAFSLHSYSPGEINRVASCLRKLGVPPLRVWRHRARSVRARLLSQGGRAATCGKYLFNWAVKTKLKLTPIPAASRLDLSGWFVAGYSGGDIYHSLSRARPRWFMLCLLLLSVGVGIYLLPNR
Description: biochemical. The settings on record: read-out: HCV polymerase inhibitory activity IC50.
For orientation: IC50 means the concentration needed to halve the response being measured. Consider `O=C(O)c1ccc2c(c1)nc(-c1ccc(OCc3sc(CN4CCC(O)CC4)nc3-c3ccc(F)cc3)cc1)n2C1CCCCC1` [Example 427, 2-{4-[{4-(4-fluorophenyl)-2-(4-hydroxypiperidin-1-ylmethyl)thiazol-5-yl}methoxy]phenyl}-1-cyclohexylbenzimidazole-5-carboxylic acid dihydrochloride], for which the 50% inhibitory concentration (IC50) stood at 20 nM.

For the molecule `NC(=O)COCc1nc(-c2ccc(F)cc2)c(COc2ccc(-c3nc4cc(C(=O)O)ccc4n3C3CCCCC3)cc2)s1` [Example 428, 2-{4-[{4-(4-fluorophenyl)-2-[(carbamoylmethoxy)methyl]thiazol-5-yl}methoxy]phenyl}-1-cyclohexylbenzimidazole-5-carboxylic acid hydrochloride], the IC50 stood at 26 nM.

For the molecule `CNC(=O)c1nc(-c2ccc(F)cc2)c(COc2ccc(-c3nc4cc(C(=O)O)ccc4n3C3CCCCC3)c(F)c2)s1` [Example 429, 2-{4-[{4-(4-fluorophenyl)-2-(methylcarbamoyl)thiazol-5-yl}methoxy]-2-fluorophenyl}-1-cyclohexylbenzimidazole-5-carboxylic acid hydrochloride], the IC50 was found to be 17 nM.

Consider `O=C(O)c1ccc2c(c1)nc(-c1ccc(OCc3sc(C(=O)NCCO)nc3-c3ccc(F)cc3)cc1F)n2C1CCCCC1` [Example 430, 2-{4-[{4-(4-fluorophenyl)-2-{(2-hydroxyethyl)carbamoyl}thiazol-5-yl}methoxy]-2-fluorophenyl}-1-cyclohexylbenzimidazole-5-carboxylic acid hydrochloride], for which the half-maximal inhibitory concentration (IC50) amounted to 17 nM.

Turning to `CN(C)C(=O)c1cc(COc2ccc(-c3nc4cc(C(=O)O)ccc4n3C3CCCCC3)c(F)c2)c(-c2ccc(F)cc2)s1` [Example 431, 2-{4-[{2-(4-fluorophenyl)-5-(dimethylcarbamoyl)thiophen-3-yl}methoxy]-2-fluorophenyl}-1-cyclohexylbenzimidazole-5-carboxylic acid hydrochloride], the concentration for half-maximal inhibition (IC50) is 15 nM.

Take `CC(C)NC(=O)c1cc(COc2ccc(-c3nc4cc(C(=O)O)ccc4n3C3CCCCC3)c(F)c2)c(-c2ccc(F)cc2)s1` [Example 432, 2-{4-[{2-(4-fluorophenyl)-5-(isopropylcarbamoyl)thiophen-3-yl}methoxy]-2-fluorophenyl}-1-cyclohexylbenzimidazole-5-carboxylic acid hydrochloride]: the half-inhibitory concentration (IC50) came to 22 nM.

As for `O=C(O)c1ccc2c(c1)nc(-c1ccc(OCc3cc(C(=O)N4CCC(O)CC4)sc3-c3ccc(F)cc3)cc1F)n2C1CCCCC1` [Example 433, 2-{4-[{2-(4-fluorophenyl)-5-(4-hydroxypiperidin-1-ylcarbonyl)thiophen-3-yl}methoxy]-2-fluorophenyl}-1-cyclohexylbenzimidazole-5-carboxylic acid hydrochloride], the half-inhibitory concentration (IC50) is 14 nM.

Consider `O=C(O)c1ccc(-c2ccc(Cl)cc2COc2ccc(-c3nc4cc(-c5nnn[nH]5)ccc4n3C3CCCCC3)c(F)c2)cc1` [Example 435, 2-{4-[2-(4-carboxyphenyl)-5-chlorobenzyloxy]-2-fluorophenyl}-1-cyclohexyl-5-tetrazol-5-ylbenzimidazole hydrochloride], for which the IC50 was 12 nM.

`CC(C)NC(=O)c1ccc(-c2ccc(Cl)cc2)c(COc2ccc(-c3nc4cc(-c5noc(=O)[nH]5)ccc4n3C3CCCCC3)c(F)c2)c1` [Example 436, 2-{4-[2-(4-chlorophenyl)-5-(isopropylcarbamoyl)benzyloxy]-2-fluorophenyl}-1-cyclohexyl-5-(2,5-dihydro-5-oxo-4H-1,2,4-oxadiazol-3-yl)benzimidazole hydrochloride]: the 50% inhibitory concentration (IC50) turned out to be 26 nM.

As for `O=C(O)c1ccc2c(c1)nc(-c1cc(C(c3cccc(F)c3)c3cccc(F)c3)c(O)cc1F)n2C1CCCCC1` [Example 440, 2-{5-[bis(3-fluorophenyl)methyl]-2-fluoro-4-hydroxyphenyl}-1-cyclohexylbenzimidazole-5-carboxylic acid], the half-inhibitory concentration (IC50) was determined as 70 nM.

For `CN(C)C(=O)c1cccc(C(Oc2ccc(-c3nc4cc(C(=O)O)ccc4n3C3CCCCC3)c(F)c2)c2ccc(F)cc2)c1` (stereo not shown) [Example 442, 2-{4-[(3-dimethylcarbamoylphenyl)(4-fluorophenyl)methoxy]-2-fluorophenyl}-1-cyclohexylbenzimidazole-5-carboxylic acid hydrochloride], the 50% inhibitory concentration (IC50) was determined as 24 nM.

`O=C(O)c1ccc2c(c1)nc(-c1ccc(OC(c3ccc(F)cc3)c3cccc(C(=O)N4CCC(O)CC4)c3)cc1F)n2C1CCCCC1` (stereo not shown) [Example 443, 2-{4-[{3-(4-hydroxypiperidyl-1-ylcarbonyl)phenyl}(4-fluorophenyl)methoxy]-2-fluorophenyl}-1-cyclohexylbenzimidazole-5-carboxylic acid hydrochloride]: the half-maximal inhibitory concentration (IC50) is 30 nM.

For `O=C(O[C@@H]1O[C@H](C(=O)O)[C@@H](O)[C@H](O)[C@H]1O)c1ccc2c(c1)nc(-c1ccc(OC(c3cccc(F)c3)c3cccc(F)c3)cc1F)n2C1CCCCC1` [Example 445, {[2-{4-[bis(3-fluorophenyl)methoxy]-2-fluorophenyl}-1-cyclohexylbenzimidazol-5-yl]carbonyl}-β-D-glucuronic acid], the 50% inhibitory concentration (IC50) amounted to 330 nM.

For `O=C(O)c1ccc2c(c1)nc(-c1ccc(OCc3cc(N4CCCS4(=O)=O)ccc3-c3ccc(Cl)cc3)cc1F)n2C1CCCCC1` [Example 446, 2-{4-[2-(4-chlorophenyl)-5-(1,1-dioxoisothiazolidin-2-yl)benzyloxy]-2-fluorophenyl}-1-cyclohexylbenzimidazole-5-carboxylic acid hydrochloride], the 50% inhibitory concentration (IC50) came to 16 nM.

`CC(C)NC(=O)c1ccc(-c2ccc(Cl)cc2)c(COc2ccc(-c3nc4cc(S(N)(=O)=O)ccc4n3C3CCCCC3)c(F)c2)c1` [Example 447, 3-{[4-(5-aminosulfonyl-1-cyclohexylbenzimidazol-2-yl)-3-fluorophenoxy]methyl}-4-(4-chlorophenyl)-N-isopropylbenzamide]: the half-maximal inhibitory concentration (IC50) is 120 nM.

As to `CC(C)NC(=O)c1cccc(-c2ccc(Cl)cc2)c1COc1ccc(-c2nc3cc(C(=O)O)ccc3n2C2CCCCC2)c(F)c1` [Example 448, 2-[4-{2-(4-chlorophenyl)-6-(isopropylaminocarbonyl)benzyloxy}-2-fluorophenyl]-1-cyclohexylbenzimidazole-5-carboxylic acid hydrochloride], the half-maximal inhibitory concentration (IC50) stood at 200 nM.

In the case of `O=C(O)c1ccc2c(c1)nc(-c1ccc(OCc3cc(N4CCCS4(=O)=O)c(F)cc3-c3ccc(Cl)cc3)cc1F)n2C1CCCCC1` [Example 449, 2-[4-{2-(4-chlorophenyl)-4-fluoro-5-(1,1-dioxoisothiazolidin-2-yl)benzyloxy}-2-fluorophenyl]-1-cyclohexylbenzimidazole-5-carboxylic acid hydrochloride], the concentration for half-maximal inhibition (IC50) worked out at 25 nM.

For `COc1c(C(=O)O)ccc2c1nc(-c1ccc(OCc3cc(C(=O)NC(C)C)ccc3-c3ccc(Cl)cc3)cc1F)n2C1CCCCC1` [Example 450, 2-[4-{2-(4-chlorophenyl)-5-(isopropylaminocarbonyl)benzyloxy}-2-fluorophenyl]-1-cyclohexyl-4-methoxybenzimidazole-5-carboxylic acid hydrochloride], the IC50 came to 40 nM.

As to `CC(C)C(=O)N(C)c1ccc(-c2ccc(Cl)cc2)c(COc2ccc(-c3nc4cc(C(=O)O)ccc4n3C3CCCCC3)c(F)c2)c1` [Example 451, 2-[4-{2-(4-chlorophenyl)-5-(N-isopropylcarbonyl-N-methylamino)benzyloxy}-2-fluorophenyl]-1-cyclohexylbenzimidazole-5-carboxylic acid hydrochloride], the IC50 came to 31 nM.

`CC(C)C(=O)Nc1ccc(-c2ccc(Cl)cc2)c(COc2ccc(-c3nc4cc(C(=O)O)ccc4n3C3CCCCC3)c(F)c2)c1` [Example 452, 2-[4-{2-(4-chlorophenyl)-5-(isopropylcarbonylamino)benzyloxy}-2-fluorophenyl]-1-cyclohexylbenzimidazole-5-carboxylic acid hydrochloride]: the IC50 was 28 nM.

Consider `O=C(O)c1ccc2c(c1)nc(-c1ccc(OCc3cc(N4CCCC4=O)c(F)cc3-c3ccc(Cl)cc3)cc1F)n2C1CCCCC1` [Example 454, 2-[4-{2-(4-chlorophenyl)-4-fluoro-5-(2-oxopyrrolidin-1-yl)benzyloxy}-2-fluorophenyl]-1-cyclohexylbenzimidazole-5-carboxylic acid hydrochloride], for which the IC50 stood at 13 nM.

As for `CS(=O)(=O)Nc1ccc(-c2ccc(Cl)cc2)c(COc2ccc(-c3nc4cc(C(=O)O)ccc4n3C3CCCCC3)c(F)c2)c1` [Example 455, 2-[4-{2-(4-chlorophenyl)-5-(methylsulfonylamino)benzyloxy}-2-fluorophenyl]-1-cyclohexylbenzimidazole-5-carboxylic acid hydrochloride], the IC50 is 15 nM.

For the molecule `CN(c1ccc(-c2ccc(Cl)cc2)c(COc2ccc(-c3nc4cc(C(=O)O)ccc4n3C3CCCCC3)c(F)c2)c1)S(C)(=O)=O` [Example 456, 2-[4-{2-(4-chlorophenyl)-5-[N-methyl-N-(methylsulfonyl)amino]benzyloxy}-2-fluorophenyl]-1-cyclohexylbenzimidazole-5-carboxylic acid hydrochloride], the IC50 amounted to 17 nM.

Consider `O=C(O)c1ccc2c(c1)nc(-c1ccc(OCc3nc(N4CCCC4=O)ccc3-c3ccc(Cl)cc3)cc1F)n2C1CCCCC1` [Example 457, 2-[4-{[3-(4-chlorophenyl)-6-(2-oxopyrrolidin-1-yl)pyridin-2-yl]methyloxy}-2-fluorophenyl]-1-cyclohexylbenzimidazole-5-carboxylic acid hydrochloride], for which the IC50 was 15 nM.

As for `CC(=O)Nc1ccc(-c2ccc(Cl)cc2)c(COc2ccc(-c3nc4cc(C(=O)O)ccc4n3C3CCCCC3)c(F)c2)c1` [Example 458, 2-[4-{2-(4-chlorophenyl)-5-(acetylamino)benzyloxy}-2-fluorophenyl]-1-cyclohexylbenzimidazole-5-carboxylic acid hydrochloride], the IC50 was 15 nM.

Source of the values: patent US20040082635A1, “Fused cyclic compounds and medicinal use thereof” (priority 2001, published 2004).
